What follows are compounds tested on TNFα in lipopolysaccharide stimulated THP cells (assay: Inhibition of TNF Production in THP Cells). Conditions: LPS (1 μg/mL) stimulated THP.1 cells, 18-24 hr incubation, human TNFα by ELISA.
Assay type: cell-based
Experimental: Inhibition of TNF Production in THP Cells
The inhibition of cytokine production can be observed by measuring inhibition of TNFα in lipopolysaccharide stimulated THP cells (for example, see W. Prichett et al., 1995, J. Inflammation, 45, 97). All cells and reagents were diluted in RPMI 1640 with phenol red and L-glutamine, supplemented with additional L-glutamine (total: 4 mM), penicillin and streptomycin (50 units/ml each) and fetal bovine serum (FBS, 3%) (GIBCO, all conc. final). Assay was performed under sterile conditions; only test compound preparation was nonsterile. Initial stock solutions were made in DMSO followed by dilution into RPMI 1640 2-fold higher than the desired final assay concentration. Confluent THP.1 cells (2×10^6 cells/mL, final conc.; […], Rockville, Md.) were added to 96 well polypropylene round bottomed culture plates (Costar 3790; sterile) containing 125 μL test compound (2 fold concentrated) or DMSO vehicle (controls, blanks). […] Cell mixture was allowed to preincubate for 30 min, 37° C., 5% CO2 prior to stimulation with lipopolysaccharide (LPS; 1 μg/mL final; Siga L-2630, from E. coli serotype 0111.B4; stored as 1 mg/mL stock in endotoxin screened distilled H2O at −80° C.). Blanks (unstimulated) received H2O vehicle; final incubation volume was 250 μl. Overnight incubation (18-24 hr) proceeded as described above. Assay was terminated by centrifuging plates 5 min, room temperature, 1600 rpm (400×g); supernatants were transferred to clean 96 well plates and stored −80° C. until analyzed for human TNFα by a commercially available ELISA kit (Biosource #KHC3015, Camarillo, Calif.). Data was analyzed by non-linear regression (Hill equation) to generate a dose response curve using SAS Software System (SAS institute, Inc., Cary, N.C.). The calculated IC50 value is the concentration of the test compound that caused a 50% decrease in the maximal TNFα production.
`Cc1ccc(C(C)(C)C)cc1NC(=O)Nc1ccc(Oc2ccnc(N)c2)c2ccccc12` [1-(5-tert-Butyl-2-methylphenyl)-3-[4-(2-aminopyridin-4-yl-oxy)naphthalen-1-yl]urea] was tested, and the IC50 was < 10 µM.
For `CC(C)(C)c1ccc(N2CCOCC2)c(NC(=O)Nc2ccc(OCCN3CCOCC3)c3ccccc23)c1` [1-(5-tert-Butyl-2-morpholin-4-yl-phenyl)-3-[4-(2-morpholin-4-yl-ethoxy)-naphthalen-1-yl]-urea], the IC50 was < 10 µM.
With `CC(C)(C)c1cc(Br)c(NCCN2CCOCC2)c(NC(=O)Nc2ccc(OCCN3CCOCC3)c3ccccc23)c1` [1-[3-Bromo-5-tert-butyl-2-(2-morpholin-4-yl-ethylamino)-phenyl]-3-[4-(2-morpholin-4-yl-ethoxy)-naphthalen-1-yl]-urea] the IC50 was < 10 µM.
With `COc1ccc(C(C)(C)C)cc1NC(=O)Nc1ccc(OCCN2CCOC(COc3ccccc3)C2)c2ccccc12` (stereo not shown) [1-[5-tert-butyl-2-methoxyphenyl]-3-[4-(2-(2-phenoxymethyl)morpholin-4-yl-ethoxy)-naphthalen-1-yl]-urea] the IC50 was < 10 µM.
For `Cc1ccc(C(C)(C)C)cc1NC(=O)Nc1ccc(OCCN2CCOCC2)c2ccccc12` [1-[5-tert-butyl-2-methylphenyl]-3-[4-(2-morpholin-4-yl-ethoxy)-naphthalen-1-yl]-urea], the IC50 was < 10 µM.
`Cc1ccc(C(C)(C)C)cc1NC(=O)Nc1ccc(Oc2cccnc2)c2ccccc12` [1-[5-tert-butyl-2-methylphenyl]-3-[4-(3-pyridinyloxy)-naphthalen-1-yl]-urea] was tested, and the IC50 was < 10 µM.
With `Cc1ccc(C(C)(C)C)cc1NC(=O)Nc1ccc(Oc2ccncc2)c2ccccc12` [1-[5-tert-butyl-2-methylphenyl]-3-[4-(4-pyridinyloxy)-naphthalen-1-yl]-urea] the IC50 was < 10 µM.

Reference: patent publication US6492393B1, “Compounds useful as anti-inflammatory agents” (Boehringer Ingelheim Pharmaceuticals, Inc., priority 1999, dated 2002)
